This passage reports EC50 and Kd results from paper PMC6934227, “GPR101 mediates the pro-resolving actions of RvD5n-3 DPA in arthritis and infections” (The Journal of Clinical Investigation, 2019).

As usually defined, the pEC50 is the EC50 on a negative log10 scale, so that one unit is a factor of ten. Read a high pEC50 as a small EC50. For orientation: pKd means the negative decadic logarithm of the Kd, by convention in mol/L.

pEC50, pKd: −log10 of the molar value.

Common to all, as to format: cell-based
For test [1], the target named is T1, GPR32 (DRV1) (Homo sapiens, UniProt O75388).
T1 construct: CHO cells stably expressing human recombinant GPR32 coupled to a β-arrestin reporter system
T1 sequence (O75388 whole entry): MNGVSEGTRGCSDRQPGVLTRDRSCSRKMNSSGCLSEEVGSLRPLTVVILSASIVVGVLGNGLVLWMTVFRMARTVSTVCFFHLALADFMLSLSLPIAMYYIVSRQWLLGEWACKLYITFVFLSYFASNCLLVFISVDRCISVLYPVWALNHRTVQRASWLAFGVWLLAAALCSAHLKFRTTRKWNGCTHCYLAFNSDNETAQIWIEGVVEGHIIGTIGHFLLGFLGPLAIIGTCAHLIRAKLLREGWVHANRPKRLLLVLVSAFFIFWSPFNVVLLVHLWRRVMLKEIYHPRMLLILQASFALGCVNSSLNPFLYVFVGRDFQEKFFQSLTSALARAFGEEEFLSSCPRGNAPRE
The test is described as follows: PathHunter β-arrestin recruitment in CHO cells (reference agonist).

Test [2] concerns the target T1, GPR32 (DRV1). The experiment in a line: PathHunter β-arrestin recruitment in CHO cells. In general terms: Activated receptors often draw arrestin, which recruitment assays turn into a signal.
The next test deals with T2, GPR101 (Homo sapiens, UniProt Q96P66).
T2 construct: GPR101-overexpressing CHO cells
T2 sequence (Q96P66 1-508): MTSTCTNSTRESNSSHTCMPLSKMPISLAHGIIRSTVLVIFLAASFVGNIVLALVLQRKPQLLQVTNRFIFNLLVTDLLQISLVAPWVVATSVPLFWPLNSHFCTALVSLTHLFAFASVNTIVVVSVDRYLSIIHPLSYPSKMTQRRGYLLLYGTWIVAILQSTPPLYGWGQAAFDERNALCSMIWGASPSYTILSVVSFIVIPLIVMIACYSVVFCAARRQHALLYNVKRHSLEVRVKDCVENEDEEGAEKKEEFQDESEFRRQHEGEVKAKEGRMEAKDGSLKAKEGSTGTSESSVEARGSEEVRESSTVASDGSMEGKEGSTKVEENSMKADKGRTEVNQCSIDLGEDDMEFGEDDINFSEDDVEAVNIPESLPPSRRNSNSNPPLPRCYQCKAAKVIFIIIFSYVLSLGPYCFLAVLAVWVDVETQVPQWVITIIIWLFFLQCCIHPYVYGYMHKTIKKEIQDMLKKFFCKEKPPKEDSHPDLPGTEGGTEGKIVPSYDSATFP
The test is described as follows: tritiated radioligand saturation binding on GPR101-overexpressing CHO cells (plus homologous competition, IC50 […]). The text has this:
These experiments yielded a calculated KD

With `CC/C=C\C[C@H](O)/C=C/C=C\C=C\C=C\[C@@H](O)[C@@H](O)C/C=C\CCC(=O)O` [RvD1, 7S,8R,17S-trihydroxy-4Z,9E,11E,13Z,15E,19Z-docosahexaenoic acid], on GPR32 (DRV1) [1], the pEC50 is ~11.82. Turning to `CC/C=C\C[C@H](O)/C=C/C=C\C/C=C\C=C\[C@@H](O)CCCCCC(=O)O` [RvD5n-3 DPA, 7S,17S-dihydroxy-8E,10Z,13Z,15E,19Z-docosapentaenoic acid], the pEC50 on GPR32 (DRV1) [2] is ~10.85. The pKd at GPR101 was ~8.16.
